In patent publication US20130338574A1, “ORAL MEDICINAL COMPOSITION FOR PATIENTS UNDERGOING PERITONEAL DIALYSIS AND METHOD FOR USING SAME” (TOKAI UNIVERSITY EDUCATIONAL SYSTEM, priority 2010, published 2013):

Tests used:
[1] = tested on: dicarbonyl compounds (3-deoxyglucosone) in the intraperitoneal fluid; assay: 3-deoxyglucosone in intraperitoneal fluid of uremic rat models, neutral peritoneal dialysis fluid (Experimental Example 3); type: in vivo, rats; conditions: oral 30 mg/rat/day, 7 days
Excerpt: Kidney subtotal excision rats with chronic renal failure (uremic rat models) were produced in the same manner as in Experimental Example 2. Distilled water for injection was orally administered compulsorily to Group 1 (control group) (n=3) once a day, and the pyridoxamine salt aqueous solution was orally administered compulsorily to Group 2 (pyridoxamine salt orally administered group) once a day. On the 6th day of administration, after distilled water for injection and the pyridoxamine salt aqueous solution were orally administered, respectively, to Groups 1 and 2, 20 ml of a neutral peritoneal dialysis fluid (pH 6.5 to 7.5) to be mixed before use (trade name: Dianeal (registered trademark)-N PD-4-1.5 mixture; Baxter Limited) (Table 1) was injected intraperitoneally to both groups, in place of the acid peritoneal dialysis fluid administered in Experimental Example 2. As explained in Experimental Example 1, the peritoneal dialysis fluid was composed of an upper-compartment solution and a lower-compartment solution separated by a partition, and both solutions were mixed immediately before being injected into the peritoneal cavity. […] The concentration of dicarbonyl compounds (3-deoxyglucosone) in the intraperitoneal fluid of each group was measured by HPLC in the same manner as in Experimental Example 2.

[2] = Transfer of pyridoxamine into blood and peritoneal cavity after oral administration to uremic rat models; type: in vivo, Sprague-Dawley male rats; conditions: oral 30 mg/rat/day, 7 days
Excerpt: The uremic rat models were produced using 7-week-old (body weight: 300 g or less) Sprague-Dawley male rats (CLEA Japan, Inc.) by the method described in NPL 27 and NPL 28. More specifically, the above rats were first subjected to 1/3 nephrectomy under anesthesia, and then to 1/2 nephrectomy after a week, thereby producing 5/6 nephrectomy rats (rats with kidney subtotal excision). These rats were allowed to freely take a standard diet for experimental rats (containing 1.06% calcium, 0.9% phosphate, and 21% protein; CE2: CLEA Japan, Inc.) and tap water until the eve of slaughter.
The kidney subtotal excision rats with chronic renal failure (uremic rat models) produced in the above manner were separated into two groups (each group: n=3). Distilled water for injection (Otsuka Pharmaceutical Co., Ltd.; here and below) was orally administered compulsorily to Group 1 (control group) once a day, while a pyridoxamine salt aqueous solution prepared by dissolving 30 mg of pyridoxamine dihydrochloride (Sigma; here and below) in 2 mL of distilled water for injection was orally administered compulsorily to Group 2 (pyridoxamine salt orally administered group) once a day. On the 6th day of administration, after distilled water for injection and the pyridoxamine salt aqueous solution were orally administered, respectively, to Groups 1 and 2, 20 ml of a peritoneal dialysis fluid (pH 4.5 to 5.5) (trade name: Dianeal (registered trademark) PD-4 4.25; Baxter Limited) was injected intraperitoneally to both groups.
Subsequently, on the 7th day of administration, as normal, distilled water for injection was orally administered compulsorily to Group 1, and the pyridoxamine salt aqueous solution was orally administered compulsorily to Group 2. […]
When the quantitative analysis of pyridoxamine and dicarbonyl compounds (3-deoxyglucosone) in the samples was performed by liquid chromatography (HPLC), the above frozen test samples (serum and intraperitoneal fluid) were used after natural thawing at room temperature.
First, 50 μL of each test sample (serum and intraperitoneal fluid) was taken in a test tube. […] Subsequently, the mixture was subjected to centrifugation at 12,000 rpm at 4° C. for 10 minutes to precipitate proteins, and the supernatant was then collected for use as a sample for pyridoxamine quantitative analysis by HPLC.
The quantitative analysis of pyridoxamine was carried out under the HPLC conditions described in Experimental Example 1 (2). The quantitative analysis was performed using a standard calibration curve previously prepared by measurement under the above HPLC conditions using standard solutions of pyridoxamine of known concentrations.

[3] = within an hour after last administration, Dianeal PD-4 4.25 i.p. on 6th day

Pyridoxamine amount in intraperitoneal fluid ([2]; amount in 20.8 ml of collected intraperitoneal fluid): 321 µg
pyridoxamine concentration in the intraperitoneal cavity, Group 2 relative to Group 1 (control) [2]: ≥ 65 times
Pyridoxamine concentration in intraperitoneal fluid [2, 3]: 14.7 µg/mL
Pyridoxamine concentration in serum [2, 3]: 13.8 µg/mL
Structure (SMILES): Cc1ncc(CO)c(CN)c1O.Cl.Cl [pyridoxamine dihydrochloride, Pyridoxamine dihydrochloride]
3-deoxyglucosone concentration in the peritoneal cavity relative to control group ([1]; neutral peritoneal dialysis fluid): less than one-half
3-deoxyglucosone concentration in intraperitoneal fluid ([1]; neutral peritoneal dialysis fluid (pH 6.5 to 7.5) Dianeal-N PD-4-1.5 mixture, 20 ml i.p., control group 23.4): 10.3 µg/mL
